Data reported in ChEMBL document CHEMBL1139619, “Exploiting a basic chemosensitizing pharmacophore hypothesis. Part 1: synthesis and biological evaluation of novel arylbromide and bicyclic chemosensitizers against drug-resistant malaria parasites” (Bioorg Med Chem Lett, 2005).
Values after ≈ are worked out from the molar mass of the structure shown. Values joined by “and” are separate entries in the source; they are usually repeats but may differ in a detail not shown here. Equal values may be shown once. Each block holds one compound with its values, some of them ahead of it.

Assays:
Plasmodium falciparum [1] = experiment: (§1) In vitro inhibitory concentration against Plasmodium falciparum FCM29; assay type: functional
Plasmodium falciparum [2] = experiment: In vitro inhibitory concentration against Plasmodium falciparum FCM29 at 0.68 ug/mL; assay type: functional
Plasmodium falciparum [3] = experiment: In vitro inhibition against Plasmodium falciparum FCM29 at 0.68 ug/mL; assay type: functional, organism-based
Plasmodium falciparum [4] = experiment: as §1; assay type: functional, organism-based
Plasmodium falciparum [5] = experiment: (§2) In vitro inhibitory concentration against chloroquine-enhancing Plasmodium falciparum FCM29 at 1.36 ug/mL; assay type: functional, organism-based
Plasmodium falciparum [6] = experiment: as §2; assay type: functional
Plasmodium falciparum [7] = experiment: In vitro inhibitory concentration against Plasmodium falciparum FCM29 at 0.3 ug/mL; assay type: functional
Plasmodium falciparum [8] = experiment: (§3) In vitro inhibitory concentration against chloroquine-enhancing Plasmodium falciparum FCM29 at 0.6 ug/mL; assay type: functional
Plasmodium falciparum [9] = experiment: as §3; assay type: functional, organism-based
Plasmodium falciparum [10] = experiment: In vitro inhibition against Plasmodium falciparum FCM29 at 0.3 ug/mL; assay type: functional, organism-based
Plasmodium falciparum [11] = experiment: (§4) In vitro inhibitory concentration against Plasmodium falciparum FCM29 at 1 ug/mL; assay type: functional, organism-based
Plasmodium falciparum [12] = experiment: In vitro inhibitory concentration against Plasmodium falciparum FCM29 at 2 ug/mL; assay type: functional
Plasmodium falciparum [13] = experiment: In vitro inhibitory concentration against Plasmodium falciparum FCM29 at 3 ug/mL; assay type: functional
Plasmodium falciparum [14] = experiment: In vitro inhibition against Plasmodium falciparum FCM29 at 3 ug/mL; assay type: functional, organism-based
Plasmodium falciparum [15] = experiment: (§5) In vitro inhibitory concentration against chloroquine-enhancing Plasmodium falciparum FCM29 at 1.5 ug/mL; assay type: functional
Plasmodium falciparum [16] = experiment: as §4; assay type: functional
Plasmodium falciparum [17] = experiment: In vitro inhibition against Plasmodium falciparum FCM29 at 2 ug/mL; assay type: functional, organism-based
Plasmodium falciparum [18] = experiment: as §5; assay type: functional, organism-based
Plasmodium falciparum [19] = experiment: (§6) In vitro inhibitory concentration against chloroquine-enhancing Plasmodium falciparum FCM29 at 1.25 ug/mL; assay type: functional, organism-based
Plasmodium falciparum [20] = experiment: In vitro inhibitory concentration against chloroquine-enhancing Plasmodium falciparum FCM29 at 2.50 ug/mL; assay type: functional, organism-based
Plasmodium falciparum [21] = experiment: In vitro inhibitory concentration against Plasmodium falciparum FCM29 at 0.62 ug/mL; assay type: functional
Plasmodium falciparum [22] = experiment: In vitro inhibitory concentration against chloroquine-enhancing Plasmodium falciparum FCM29 at.62 ug/mL; assay type: functional, organism-based
Plasmodium falciparum [23] = experiment: In vitro inhibitory concentration against chloroquine-enhancing Plasmodium falciparum FCM29 at2.50 ug/mL; assay type: functional
Plasmodium falciparum [24] = experiment: as §6; assay type: functional
Plasmodium falciparum [25] = experiment: (§7) In vitro inhibitory concentration against chloroquine-enhancing Plasmodium falciparum FCM29 at 2 ug/mL; assay type: functional, organism-based
Plasmodium falciparum [26] = experiment: (§8) In vitro inhibitory concentration against chloroquine-enhancing Plasmodium falciparum FCM29 at 3 ug/mL; assay type: functional, organism-based
Plasmodium falciparum [27] = experiment: as §8; assay type: functional
Plasmodium falciparum [28] = experiment: as §7; assay type: functional
Plasmodium falciparum [29] = experiment: (§9) In vitro inhibitory concentration against chloroquine-enhancing Plasmodium falciparum FCM29 at 5 ug/mL; assay type: functional
Plasmodium falciparum [30] = experiment: (§10) In vitro inhibitory concentration against chloroquine-enhancing Plasmodium falciparum FCM29 at 2.5 ug/mL; assay type: functional, organism-based
Plasmodium falciparum [31] = experiment: In vitro inhibition against Plasmodium falciparum FCM29 at 0.62 ug/mL; assay type: functional, organism-based
Plasmodium falciparum [32] = experiment: as §9; assay type: functional, organism-based
Plasmodium falciparum [33] = experiment: as §10; assay type: functional
Plasmodium falciparum [34] = experiment: In vitro inhibition against Plasmodium falciparum FCM29 at 4 ug/mL; assay type: functional, organism-based
Plasmodium falciparum [35] = experiment: In vitro inhibitory concentration against Plasmodium falciparum FCM29 at 4 ug/mL; assay type: functional
Plasmodium falciparum [36] = experiment: (§11) In vitro inhibitory concentration against chloroquine-enhancing Plasmodium falciparum FCM29 at 0.5 ug/mL; assay type: functional
Plasmodium falciparum [37] = experiment: as §11; assay type: functional, organism-based
Plasmodium falciparum [38] = experiment: In vitro inhibitory concentration chloroquine-enhancing against chloroquine-enhancing Plasmodium falciparum FCM29 at 0.75 ug/mL; assay type: functional, organism-based
Plasmodium falciparum [39] = experiment: In vitro inhibitory concentration chloroquine-enhancing against Plasmodium falciparum FCM29 at 0.375 ug/mL; assay type: functional
Plasmodium falciparum [40] = experiment: In vitro inhibitory concentration against chloroquine-enhancing Plasmodium falciparum FCM29 at 0.75 ug/mL; assay type: functional
Plasmodium falciparum [41] = experiment: In vitro inhibitory concentration against Plasmodium falciparum FCM29 at 1.5 ug/mL; assay type: functional
[42] = (§12) In vitro inhibitory concentration against Plasmodium falciparum FCM29 @ concentration of 00 ug/mL; assay type: functional
[43] = In vitro inhibitory concentration against chloroquine-enhancing Plasmodium falciparum FCM29 @ concentration of 1 ug/mL; assay type: functional
[44] = In vitro inhibitory concentration against chloroquine-enhancing Plasmodium falciparum FCM29 @ concentration of 00 ug/mL; assay type: functional
Plasmodium falciparum [45] = experiment: as §12; assay type: functional
Plasmodium falciparum [46] = experiment: In vitro inhibitory concentration against Plasmodium falciparum FCM29 @ concentration of 0.5 ug/mL; assay type: functional

Structure (SMILES): CCN(CC)CCCNc1ccccc1Br
- IC50 (Plasmodium falciparum [11]; Plasmodium falciparum): 0.0582 µM
- IC90 (Plasmodium falciparum [12]): 0.134 µM
- IC90 (Plasmodium falciparum [13]): 0.153 µM
- IC50 (Plasmodium falciparum [14]): 0.0061 µM
- IC90 (Plasmodium falciparum [15]): 0.195 µM
- IC50 (Plasmodium falciparum [4]): 3.7 mg/L (≈ 13 µM)
- IC90 (Plasmodium falciparum [16]; Plasmodium falciparum): 0.29 µM
- IC50 (Plasmodium falciparum [17]): 0.0288 µM
- IC50 (Plasmodium falciparum [18]): 0.0403 µM

Structure (SMILES): CCN(CC)CCCNc1ccccc1-c1ccccc1
- IC90 (Plasmodium falciparum [1]): 94.6 mg/L (≈ 335 µM)
- IC50 (Plasmodium falciparum [19]): 0.0722 µM
- IC50 (Plasmodium falciparum [20]): 0.0115 µM
- IC90 (Plasmodium falciparum [21]): 0.82 µM
- IC50 (Plasmodium falciparum [4]): 3.1 mg/L (≈ 11 µM)
- IC50 (Plasmodium falciparum [22]): 0.138 µM
- IC90 (Plasmodium falciparum [23]): 0.373 µM
- IC90 (Plasmodium falciparum [24]): 0.4 µM

Structure (SMILES): CCN(CC)CCCNc1cccc(Br)c1
- IC90 (Plasmodium falciparum [29]): 0.21 µM
- IC90 (Plasmodium falciparum [1]): 80.3 mg/L (≈ 282 µM)
- IC50 (Plasmodium falciparum [19]): 0.0685 µM
- IC50 (Plasmodium falciparum [30]): 0.0385 µM
- IC90 (Plasmodium falciparum [21]): 0.809 µM
- IC50 (Plasmodium falciparum [31]): 0.11 µM
- IC50 (Plasmodium falciparum [4]): 7.6 mg/L (≈ 26.6 µM)
- IC50 (Plasmodium falciparum [32]): 0.0072 µM
- IC90 (Plasmodium falciparum [33]): 0.443 µM
- IC90 (Plasmodium falciparum [24]): 0.392 µM

Structure (SMILES): CCN(CC)CCCNc1ccc(-c2ccccc2)cc1
- IC50 (Plasmodium falciparum [38]): 0.054 µM
- IC90 (Plasmodium falciparum [1]): 18.5 mg/L (≈ 65.5 µM)
- IC90 (Plasmodium falciparum [39]): 0.0982 µM and 0.368 µM
- IC50 (Plasmodium falciparum [4]): 2.9 mg/L (≈ 10.3 µM)
- IC90 (Plasmodium falciparum [40]): 0.198 µM
- IC90 (Plasmodium falciparum [41]): 0.114 µM
- IC50 (Plasmodium falciparum [18]): 0.0259 µM

Structure (SMILES): CCN(CC)CCCNc1ccc(Br)cc1
- IC50 [42]: 0.161 µM
- IC90 (Plasmodium falciparum [12]): 0.272 µM
- IC90 (Plasmodium falciparum [1]): 66.7 mg/L (≈ 234 µM)
- IC50 (Plasmodium falciparum [34]): 0.0287 µM
- IC50 (Plasmodium falciparum [4]): 6.1 mg/L (≈ 21.4 µM)
- IC90 (Plasmodium falciparum [35]): 0.273 µM
- IC50 (Plasmodium falciparum [17]): 0.0693 µM
- IC50 [43]: 0.0959 µM
- IC50 [44]: 0.161 µM
- IC90 (Plasmodium falciparum [36]): 0.745 µM
- IC90 (Plasmodium falciparum [45]): 0.843 µM
- IC90 (Plasmodium falciparum [46]): 0.745 µM
- IC50 (Plasmodium falciparum [37]): 0.145 µM

Next, values leading:

- IC90 (Plasmodium falciparum [1]): 20.8 mg/L (≈ 73.6 µM)
- IC90 (Plasmodium falciparum [2]): 0.781 µM
- IC50 (Plasmodium falciparum [3]): 0.16 µM
- IC50 (Plasmodium falciparum [4]): 2.3 mg/L (≈ 8.14 µM)
- IC50 (Plasmodium falciparum [5]): 0.109 µM
- IC90 (Plasmodium falciparum [6]): 0.63 µM
Structure (SMILES): CCN(CC)CCCNc1cccc(-c2ccccc2)c1

- IC90 (Plasmodium falciparum [1]): 24.4 mg/L (≈ 86.1 µM)
- IC90 (Plasmodium falciparum [7]): 0.655 µM
- IC50 (Plasmodium falciparum [4]): 1.7 mg/L (≈ 6 µM)
- IC90 (Plasmodium falciparum [8]): 0.311 µM
- IC50 (Plasmodium falciparum [9]): 0.101 µM
- IC50 (Plasmodium falciparum [10]): 0.169 µM
Structure (SMILES): CCN(CC)CCCOc1ccc(-c2ccccc2)cc1

- IC50 (Plasmodium falciparum [25]): 0.0076 µM
- IC50 (Plasmodium falciparum [11]; Plasmodium falciparum): 0.0539 µM
- IC90 (Plasmodium falciparum [1]): 22.3 mg/L (≈ 78.7 µM)
- IC90 (Plasmodium falciparum [15]): 0.301 µM
- IC50 (Plasmodium falciparum [4]): 3.3 mg/L (≈ 11.6 µM)
- IC50 (Plasmodium falciparum [26]): 0.003 µM
- IC90 (Plasmodium falciparum [27]): 0.157 µM
- IC90 (Plasmodium falciparum [16]; Plasmodium falciparum): 0.534 µM
- IC90 (Plasmodium falciparum [28]): 0.191 µM
- IC50 (Plasmodium falciparum [18]): 0.0429 µM
Structure (SMILES): CCN(CC)CCCOc1ccccc1-c1ccccc1

- IC50 (Plasmodium falciparum [25]): 0.0777 µM
- IC50 (Plasmodium falciparum [11]): 0.119 µM
- IC50 (Plasmodium falciparum [11]; Plasmodium falciparum): 0.101 µM
- IC90 (Plasmodium falciparum [12]): 0.205 µM
- IC90 (Plasmodium falciparum [1]): 49.5 mg/L (≈ 175 µM)
- IC50 (Plasmodium falciparum [34]): 0.0031 µM
- IC50 (Plasmodium falciparum [4]): 3.1 mg/L (≈ 10.9 µM)
- IC90 (Plasmodium falciparum [35]): 0.0732 µM
- IC90 (Plasmodium falciparum [16]): 0.255 µM and 0.745 µM
- IC50 (Plasmodium falciparum [17]): 0.0709 µM
- IC90 (Plasmodium falciparum [36]): 0.736 µM
- IC90 (Plasmodium falciparum [28]): 0.556 µM
- IC50 (Plasmodium falciparum [37]): 0.152 µM
Structure (SMILES): CCN(CC)CCCOc1cccc(-c2ccccc2)c1
